Laboratory results published in ChEMBL document CHEMBL4052802, “Design, synthesis and biological evaluation of novel 3-oxo-4-oxa-5α-androst-17β-amide derivatives as dual 5α-reductase inhibitors and androgen receptor antagonists” (Bioorg Med Chem Lett, 2017).

Tests used:
[1] = biological target: T1, 3-oxo-5-alpha-steroid 4-dehydrogenase 2 (Homo sapiens, UniProt P31213); assay: Inhibition of recombinant human 5alpha-reductase type2 expressed in baculovirus expression system using [7-3H]T as substrate pretreated for 18 hrs followed by substrate addition by reverse-phase HPLC method
T1 sequence (P31213 whole entry): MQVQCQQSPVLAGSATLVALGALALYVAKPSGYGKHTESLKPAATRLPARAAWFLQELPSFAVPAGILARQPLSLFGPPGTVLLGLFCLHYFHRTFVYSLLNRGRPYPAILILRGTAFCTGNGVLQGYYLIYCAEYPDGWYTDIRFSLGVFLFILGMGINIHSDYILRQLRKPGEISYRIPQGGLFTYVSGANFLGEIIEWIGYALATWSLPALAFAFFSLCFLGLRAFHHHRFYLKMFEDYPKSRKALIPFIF

Androgen receptor [2] = biological target: T2, Androgen receptor (Homo sapiens, UniProt P10275); assay: Displacement of [3H]-DHT from recombinant human androgen receptor expressed in CHO cells; assay type: cell-based
T2 sequence (P10275 whole entry): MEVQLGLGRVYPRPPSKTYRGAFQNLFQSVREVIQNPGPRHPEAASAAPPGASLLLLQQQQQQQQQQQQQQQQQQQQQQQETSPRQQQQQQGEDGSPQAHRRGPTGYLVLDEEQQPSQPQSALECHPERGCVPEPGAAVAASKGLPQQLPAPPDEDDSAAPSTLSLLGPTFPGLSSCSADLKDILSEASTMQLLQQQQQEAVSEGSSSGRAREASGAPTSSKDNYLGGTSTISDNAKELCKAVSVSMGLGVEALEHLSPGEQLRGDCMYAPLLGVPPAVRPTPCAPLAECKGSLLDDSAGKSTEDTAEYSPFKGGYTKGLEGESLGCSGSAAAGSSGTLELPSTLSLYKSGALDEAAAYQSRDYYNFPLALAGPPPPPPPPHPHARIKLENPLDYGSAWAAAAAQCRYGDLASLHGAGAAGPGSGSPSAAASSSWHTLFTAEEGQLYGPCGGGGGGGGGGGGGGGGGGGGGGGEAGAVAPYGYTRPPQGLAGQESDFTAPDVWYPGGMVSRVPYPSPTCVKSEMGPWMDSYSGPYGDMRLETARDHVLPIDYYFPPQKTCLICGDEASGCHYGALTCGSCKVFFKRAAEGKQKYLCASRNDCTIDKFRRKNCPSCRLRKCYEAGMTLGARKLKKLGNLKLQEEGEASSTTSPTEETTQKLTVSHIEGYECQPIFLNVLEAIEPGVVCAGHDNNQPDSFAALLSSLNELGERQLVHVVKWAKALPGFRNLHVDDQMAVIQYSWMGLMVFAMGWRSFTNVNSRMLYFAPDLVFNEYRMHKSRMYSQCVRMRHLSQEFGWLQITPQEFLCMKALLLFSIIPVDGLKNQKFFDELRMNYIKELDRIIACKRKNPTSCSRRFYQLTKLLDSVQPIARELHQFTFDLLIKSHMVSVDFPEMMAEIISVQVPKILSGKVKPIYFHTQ

[3] = biological target: T3, 3-oxo-5-alpha-steroid 4-dehydrogenase 1 (Homo sapiens, UniProt P18405); assay: Inhibition of recombinant human 5alpha-reductase type1 expressed in baculovirus expression system using [7-3H]T as substrate pretreated for 18 hrs followed by substrate addition measured after 90 mins by reverse-phase HPLC method
T3 sequence (P18405 whole entry): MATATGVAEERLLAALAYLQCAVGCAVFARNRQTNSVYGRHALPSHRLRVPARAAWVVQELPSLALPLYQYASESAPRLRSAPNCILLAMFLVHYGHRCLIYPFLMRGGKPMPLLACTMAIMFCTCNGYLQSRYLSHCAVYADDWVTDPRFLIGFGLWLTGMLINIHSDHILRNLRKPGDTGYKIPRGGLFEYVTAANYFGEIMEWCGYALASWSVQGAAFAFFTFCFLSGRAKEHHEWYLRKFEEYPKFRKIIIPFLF

PC-3 [4] = assay: Cytotoxicity against human PC3 cells after 48 hrs by MTT assay; assay type: functional, cell-based; conditions: PC-3, 48 h
[5] = biological target: Androgen receptor (Homo sapiens) (UniProt P10275); assay: Inhibition of recombinant human His-tagged/GST-fused androgen receptor LBD expressed in baculovirus expression system at 50 uM measured after 1.5 hrs by fluorescence polarization assay relative to control
LNCaP [6] = assay: Growth inhibition of human LNCAP cells at 80 uM after 48 hrs by MTT assay relative to control; assay type: functional; conditions: read-out: GI
Rattus norvegicus = species: Rattus norvegicus; assay: Inhibition of rat liver 5alpha-reductase at 50 uM using testosterone as substrate incubated for 30 mins measured for 10 mins by fluorescence assay relative to control
PC-3 [7] = assay: Growth inhibition of human PC3 cells at 80 uM after 48 hrs by MTT assay relative to control; assay type: functional; conditions: PC-3, 48 h, read-out: GI
LNCaP [8] = assay: Cytotoxicity against human LNCAP cells after 48 hrs by MTT assay; assay type: functional, cell-based
[9] = Inhibition of rat liver 5alpha-reductase using testosterone as substrate incubated for 30 mins measured for 10 mins by fluorescence assay
Androgen receptor [10] = biological target: T4, Androgen receptor (Rattus norvegicus, UniProt P15207); assay: Displacement of fluormone-AL Green from recombinant rat His-tagged/GST-fused androgen receptor LBD expressed in baculovirus expression system measured after 1.5 hrs by fluorescence polarization assay
T4 sequence (P15207 whole entry): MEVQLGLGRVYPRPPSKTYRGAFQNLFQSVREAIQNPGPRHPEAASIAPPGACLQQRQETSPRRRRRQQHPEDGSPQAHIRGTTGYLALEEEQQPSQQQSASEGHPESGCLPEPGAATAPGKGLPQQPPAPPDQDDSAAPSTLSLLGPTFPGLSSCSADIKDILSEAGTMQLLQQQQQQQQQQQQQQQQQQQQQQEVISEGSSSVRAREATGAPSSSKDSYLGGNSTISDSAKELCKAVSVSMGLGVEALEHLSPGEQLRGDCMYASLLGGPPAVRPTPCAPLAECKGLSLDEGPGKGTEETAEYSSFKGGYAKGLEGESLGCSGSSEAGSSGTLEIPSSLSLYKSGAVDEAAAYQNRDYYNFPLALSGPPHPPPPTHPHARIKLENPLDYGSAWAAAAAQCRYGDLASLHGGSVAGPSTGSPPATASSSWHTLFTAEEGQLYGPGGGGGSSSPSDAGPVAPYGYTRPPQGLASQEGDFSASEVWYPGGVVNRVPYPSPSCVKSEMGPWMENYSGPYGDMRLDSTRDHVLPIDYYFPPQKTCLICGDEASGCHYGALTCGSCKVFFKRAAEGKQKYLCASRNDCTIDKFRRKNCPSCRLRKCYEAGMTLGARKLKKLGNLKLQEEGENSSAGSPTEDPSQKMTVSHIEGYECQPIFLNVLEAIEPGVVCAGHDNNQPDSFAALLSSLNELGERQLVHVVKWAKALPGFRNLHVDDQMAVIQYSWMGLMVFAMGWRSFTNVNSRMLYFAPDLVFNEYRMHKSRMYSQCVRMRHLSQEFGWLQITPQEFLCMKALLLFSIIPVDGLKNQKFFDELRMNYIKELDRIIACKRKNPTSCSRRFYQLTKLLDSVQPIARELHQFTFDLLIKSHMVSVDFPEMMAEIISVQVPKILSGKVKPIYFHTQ

[11] = Selectivity ratio of IC50 for human PC3 cells to IC50 for human LNCAP cells; assay type: functional
[12] = Cmax in Sprague-Dawley rat at 0.2 mg/kg, po by LC-MS/MS analysis; assay type: ADME, organism-based; parameters: dose 0.2 mg/kg, route oral; conditions: in vivo
[13] = AUC (0 to t) in Sprague-Dawley rat at 0.2 mg/kg, po by LC-MS/MS analysis; assay type: ADME, organism-based; conditions: in vivo
Plasma = assay: Retention time in Sprague-Dawley rat plasma at 0.2 mg/kg, po measured after 24 hrs by total ion chromatographic method; assay type: ADME, organism-based; conditions: in vivo
[14] = AUC (0 to infinity) in Sprague-Dawley rat at 0.2 mg/kg, po by LC-MS/MS analysis; assay type: ADME, organism-based; parameters: dose 0.2 mg/kg, route oral, time infinity; conditions: in vivo
[15] = Elimination half-life in Sprague-Dawley rat at 0.2 mg/kg, po by LC-MS/MS analysis; assay type: ADME, organism-based; conditions: in vivo, read-out: beta t1/2 (converted)
[16] = Tmax in Sprague-Dawley rat at 0.2 mg/kg, po by LC-MS/MS analysis; assay type: ADME, organism-based; conditions: in vivo

Row | Compound | IC50 (PC-3 [4]) [µM] | inhibition [5] [%] | inhibition of growth at 80 µM (LNCaP [6]) [%] | inhibition (Rattus norvegicus) [%] | inhibition of growth at 80 µM (PC-3 [7]) [%] | further results
1 | C[C@]12CCC(=O)N[C@@H]1CC[C@@H]1[C@@H]2CC[C@]2(C)[C@@H](C(=O)Nc3ccccc3)CC[C@@H]12 |  |  |  |  |  | IC50 [1]: 0.015 µM; IC50 (Androgen receptor [2]): 23 µM; IC50 [3]: 0.41 µM
2 | C[C@]12CCC(=O)O[C@@H]1CC[C@@H]1[C@@H]2CC[C@]2(C)[C@@H](C(=O)N(c3ccccc3)c3ccccc3)CC[C@@H]12 | 75.2 | 3.29 | 31.4 | 15.5 | 35.4 | 
3 | CC(C)C(=O)Nc1ccc([N+](=O)[O-])c(C(F)(F)F)c1 [FLUTAMIDE] | 67.3 |  | 63 |  | 21.2 | IC50 (LNCaP [8]): 47.6 µM
4 | C[C@]12CCC(=O)O[C@@H]1CC[C@@H]1[C@@H]2CC[C@]2(C)[C@@H](C(=O)N(C3CCCCC3)C3CCCCC3)CC[C@@H]12 | 74.3 | 11.3 | 13.8 | 33.4 | 32 | 
5 | CCCCN(CCCC)C(=O)[C@H]1CC[C@H]2[C@@H]3CC[C@H]4OC(=O)CC[C@]4(C)[C@H]3CC[C@]12C | 40.1 | 11.8 | 88.9 | 36.5 | 89.9 | IC50 (LNCaP [8]): 32.4 µM
6 | CN(C(=O)[C@H]1CC[C@H]2[C@@H]3CC[C@H]4OC(=O)CC[C@]4(C)[C@H]3CC[C@]12C)c1ccccc1 | 62.2 | 14.3 | 30 | 84.2 | 35.1 | IC50 [9]: 0.89 µM
7 | C[C@H]1CC(=O)C[C@@H]2CC[C@H]3[C@@H]4CC[C@H](O)[C@@]4(C)CC[C@@H]3[C@]21C [MESTEROLONE] |  |  |  |  |  | IC50 (Androgen receptor [10]): 18.3 µM
8 | C[C@]12CCC(=O)O[C@@H]1CC[C@@H]1[C@@H]2CC[C@]2(C)[C@@H](C(=O)Nc3ccccc3)CC[C@@H]12 | 86.2 | 7.09 | 24.2 | 67.3 | 31.7 | 
9 | C[C@]12CCC(=O)O[C@@H]1CC[C@@H]1[C@@H]2CC[C@]2(C)[C@@H](C(=O)Nc3ccc(F)cc3)CC[C@@H]12 | 50 | 18.9 | 39.7 | 46.9 | 46.3 | 
10 | C[C@]12CCC(=O)O[C@@H]1CC[C@@H]1[C@@H]2CC[C@]2(C)[C@@H](C(=O)N(Cc3ccccc3)Cc3ccccc3)CC[C@@H]12 | 127 | 57.1 | 81.8 | 69.8 | 12.9 | IC50 (Androgen receptor [10]): 16.8 µM; Ratio IC50 [11]: 4; IC50 (LNCaP [8]): 29.8 µM
11 | CC(C)(C)NC(=O)[C@H]1CC[C@H]2[C@@H]3CC[C@H]4NC(=O)C=C[C@]4(C)[C@H]3CC[C@]12C [FINASTERIDE] | > 80 |  |  | 94.3 | 0.4 | IC50 [9]: 0.59 µM; Cmax [12]: 4.19 ng/mL; AUC(0-t) [13]: 23.5 ng·h/mL; Retention_time (Plasma): 3.5 min; AUC(0-inf) [14]: 23.8 ng·h/mL; half-life [15]: 3.91 h; Tmax [16]: 2.67 h
12 | CCN(CC)C(=O)[C@H]1CC[C@H]2[C@@H]3CC[C@H]4OC(=O)CC[C@]4(C)[C@H]3CC[C@]12C | 68.2 | 33.7 | 42.7 | 39.5 | 27.9 | 
13 | CC(C)(C)NC(=O)[C@H]1CC[C@H]2[C@@H]3CC[C@H]4OC(=O)CC[C@]4(C)[C@H]3CC[C@]12C | 70.1 | 3.73 | 37.3 | 48.3 | 28.1 | 
14 | C[C@]12CCC(=O)O[C@@H]1CC[C@@H]1[C@@H]2CC[C@]2(C)[C@@H](C(=O)N3CCCCC3)CC[C@@H]12 | 85.4 | 17.4 | 12.3 | 89.3 | 26.2 | IC50 [9]: 6.01 µM
